From patent US11254688B2 (Boehringer Ingelheim International GmbH, priority 2018, dated 2022)
Counter-ions that a name gives are not always drawn.

Molecular target: T1, hGOAT (Homo sapiens, UniProt Q96T53)
T1 construct: expressed in transfected cells; host or cells: HEK293 (Hek293 hGOAT/PPGhrl Clone #1B8)
T1 sequence (Q96T53 1-435): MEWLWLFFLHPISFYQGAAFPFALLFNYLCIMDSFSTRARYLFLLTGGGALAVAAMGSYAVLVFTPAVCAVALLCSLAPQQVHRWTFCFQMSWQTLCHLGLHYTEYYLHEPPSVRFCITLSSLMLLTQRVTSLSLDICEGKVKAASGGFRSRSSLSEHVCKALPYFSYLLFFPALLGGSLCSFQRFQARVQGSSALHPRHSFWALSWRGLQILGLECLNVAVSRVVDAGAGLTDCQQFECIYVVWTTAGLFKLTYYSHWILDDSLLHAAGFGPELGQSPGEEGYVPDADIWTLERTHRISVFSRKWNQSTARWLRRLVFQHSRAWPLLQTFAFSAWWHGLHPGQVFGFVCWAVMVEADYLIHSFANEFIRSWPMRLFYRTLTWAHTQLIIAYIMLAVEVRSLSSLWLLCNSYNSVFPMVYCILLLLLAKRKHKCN
Experiment: Determination of hGOAT activity in HEK293 cells after incubation with test compound (acyl-ghrelin ELISA)
Format: cell-based
Conditions: HEK293 cells stably transfected with preproghrelin and human GOAT; octanoate-BSA 100 μM; 5 hours incubation; acyl-ghrelin in medium by ELISA; 8 compound concentrations

| IC50 [nM] | Structure (SMILES) |
| --- | --- |
| 3.06 | Cc1nc2nonc2c(N)c1Cc1ccc(C(=O)NC2CCN(C)C2=O)cc1 (centres unmarked) [Compound 14.9, 4-({7-Amino-5-methyl-[1,2,5]oxadiazolo[3,4-b]pyridin-6-yl}methyl)-N-(1-methyl-2-oxopyrrolidin-3-yl)benzamide] |
| 4.7 | Cc1nc2nonc2c(N)c1Cc1ccc(C(=O)NC(C)CO)cc1 (centres unmarked) [Compound 14.10, 4-({7-amino-5-methyl-[1,2,5]oxadiazolo[3,4-b]pyridin-6-yl}methyl)-N-(1-hydroxypropan-2-yl)benzamide] |
| 4.16 | Cc1nc2nonc2c(N)c1Cc1ccc(C(=O)NCc2cnn(C)c2)cc1 [Compound 14.11, 4-({7-Amino-5-methyl-[1,2,5]oxadiazolo[3,4-b]pyridin-6-yl}methyl)-N-[(1-methyl-1H-pyrazol-4-yl)methyl]benzamide] |
| 3.02 | Cc1nc2nonc2c(N)c1Cc1ccc(C(=O)NC2CCOC2)cc1 (centres unmarked) [Compound 14.12, 4-({7-Amino-5-methyl-[1,2,5]oxadiazolo[3,4-b]pyridin-6-yl}methyl)-N-(oxolan-3-yl)benzamide] |
| 4.99 | Cc1nc2nonc2c(N)c1Cc1ccc(C(=O)NCC2(C)COC2)cc1 [Compound 14.13, 4-({7-Amino-5-methyl-[1,2,5]oxadiazolo[3,4-b]pyridin-6-yl}methyl)-N-[(3-methyloxetan-3-yl)methyl]benzamide] |
| 5.55 | Cc1nc2nonc2c(N)c1Cc1ccc(C(=O)NCc2ccnnc2)cc1 [Compound 14.14, 4-({7-Amino-5-methyl-[1,2,5]oxadiazolo[3,4-b]pyridin-6-yl}methyl)-N-[(pyridazin-4-yl)methyl]benzamide] |
| 5.12 | Cc1nc2nonc2c(N)c1Cc1ccc(C(=O)NCC(C)O)cc1 (centres unmarked) [Compound 14.15, 4-({7-Amino-5-methyl-[1,2,5]oxadiazolo[3,4-b]pyridin-6-yl}methyl)-N-(2-hydroxypropyl)benzamide] |
| 3.73 | Cc1nc2nonc2c(N)c1Cc1ccc(C(=O)NC(CO)C2CC2)cc1 (centres unmarked) [Compound 14.16, 4-({7-Amino-5-methyl-[1,2,5]oxadiazolo[3,4-b]pyridin-6-yl}methyl)-N-(1-cyclopropyl-2-hydroxyethyl)benzamide] |
| 4.5 | Cc1nc2nonc2c(N)c1Cc1ccc(C(=O)Nc2ncnn2C)cc1 [Compound 14.17, 4-({7-Amino-5-methyl-[1,2,5]oxadiazolo[3,4-b]pyridin-6-yl}methyl)-N-(1-methyl-1H-1,2,4-triazol-5-yl)benzamide] |
| 7.77 | CNC(=O)c1ccc(Cc2c(C)nc3nonc3c2N)cc1 [Compound 14.18, 4-({7-Amino-5-methyl-[1,2,5]oxadiazolo[3,4-b]pyridin-6-yl}methyl)-N-methylbenzamide] |
| 0.183 | Cc1nc2nonc2c(N)c1Cc1ccc(OC(F)(F)F)c(C(=O)N(C)C)c1 [Compound 15.1, 5-({7-Amino-5-methyl-[1,2,5]oxadiazolo[3,4-b]pyridin-6-yl}methyl)-N,N-dimethyl-2-(trifluoromethoxy)benzamide] |
| 0.096 | Cc1nc2nonc2c(N)c1Cc1ccc(OC(F)(F)F)c(C(N)=O)c1 [Compound 15.2, 5-({7-Amino-5-methyl-[1,2,5]oxadiazolo[3,4-b]pyridin-6-yl}methyl)-2-(trifluoromethoxy)benzamide] |
| 1.58 | Cc1nc2nonc2c(N)c1Cc1ccc(Cl)c(C(N)=O)c1 [Compound 15.3, 5-({7-Amino-5-methyl-[1,2,5]oxadiazolo[3,4-b]pyridin-6-yl}methyl)-2-chlorobenzamide] |
| 0.933 | CNC(=O)c1cc(Cc2c(C)nc3nonc3c2N)ccc1Cl [Compound 15.4, 5-({7-Amino-5-methyl-[1,2,5]oxadiazolo[3,4-b]pyridin-6-yl}methyl)-2-chloro-N-methylbenzamide] |
| 0.475 | Cc1nc2nonc2c(N)c1Cc1ccc(Cl)c(C(=O)N(C)C)c1 [Compound 15.5, 5-({7-Amino-5-methyl-[1,2,5]oxadiazolo[3,4-b]pyridin-6-yl}methyl)-2-chloro-N,N-dimethylbenzamide] |
| 1.26 | Cc1nc2nonc2c(N)c1Cc1ccc(C(F)(F)F)c(C(=O)N(C)C)c1 [Compound 15.6, 5-({7-Amino-5-methyl-[1,2,5]oxadiazolo[3,4-b]pyridin-6-yl}methyl)-N,N-dimethyl-2-(trifluoromethyl)benzamide] |
| 0.26 | Cc1nc2nonc2c(N)c1Cc1ccc(OC(F)(F)F)c(C#N)c1 [Compound 16.1, 5-({7-Amino-5-methyl-[1,2,5]oxadiazolo[3,4-b]pyridin-6-yl}methyl)-2-(trifluoromethoxy)benzonitrile] |
| 0.726 | Cc1nc2nonc2c(N)c1Cc1ccc(CO)cc1 [Compound 17.1, [4-({7-Amino-5-methyl-[1,2,5]oxadiazolo[3,4-b]pyridin-6-yl}methyl)phenyl]methanol] |

| IC50 [nM] | Structure (SMILES) |
| --- | --- |
| 0.171 | Cc1nc2nonc2c(N)c1Cc1ccc(C(F)F)cc1 [Compound 17.2, 6-{[4-(difluoromethyl)phenyl]methyl}-5-methyl-[1,2,5]oxadiazolo[3,4-b]pyridin-7-amine] |
| 0.921 | Cc1nc2nonc2c(N)c1Cc1ccc([S+](C)[O-])cc1 (centres unmarked) [Compound 18.1, 6-[(4-Methanesulfinylphenyl)methyl]-5-methyl-[1,2,5]oxadiazolo[3,4-b]pyridin-7-amine] |
| 4.53 | Cc1nc2nonc2c(N)c1Cc1ccc(C2(C(N)=O)CC2)nc1 [Compound 19.1, 1-[5-({7-Amino-5-methyl-[1,2,5]oxadiazolo[3,4-b]pyridin-6-yl}methyl)pyridin-2-yl]cyclopropane-1-carboxamide] |
| 8.42 | Cc1nc2nonc2c(N)c1Cc1ccc(C2(C(=O)O)CC2)nc1 [Compound 19.2, 1-[5-({7-Amino-5-methyl-[1,2,5]oxadiazolo[3,4-b]pyridin-6-yl}methyl)pyridin-2-yl]cyclopropane-1-carboxylic Acid] |
| 0.555 | Cc1nc2nonc2c(N)c1Cc1ccc(C(C)(C)C(N)=O)nc1 [Compound 19.3, 2-[5-({7-Amino-5-methyl-[1,2,5]oxadiazolo[3,4-b]pyridin-6-yl}methyl)pyridin-2-yl]-2-methylpropanamide] |
| 0.534 | Cc1nc2nonc2c(N)c1Cc1ccc(C(C)(C)C(=O)O)nc1 [Compound 19.4, 2-[5-({7-Amino-5-methyl-[1,2,5]oxadiazolo[3,4-b]pyridin-6-yl}methyl)pyridin-2-yl]-2-methylpropanoic Acid] |
| 2.22 | Cc1nc2nonc2c(N)c1Cc1ccc(Br)c(C(N)=O)c1 [Compound 19.5, 5-({7-Amino-5-methyl-[1,2,5]oxadiazolo[3,4-b]pyridin-6-yl}methyl)-2-bromobenzamide] |
| 2.06 | Cc1nc2nonc2c(N)c1Cc1ccc(F)c(C(N)=O)c1 [Compound 19.6, 5-({7-Amino-5-methyl-[1,2,5]oxadiazolo[3,4-b]pyridin-6-yl}methyl)-2-fluorobenzamide] |
| 7.97 | Cc1nc2nonc2c(N)c1Cc1ccc(C(F)(F)F)c(C(N)=O)c1 [Compound 19.7, 5-({7-Amino-5-methyl-[1,2,5]oxadiazolo[3,4-b]pyridin-6-yl}methyl)-2-(trifluoromethyl) benzamide] |
| 4.63 | Cc1nc2nonc2c(N)c1Cc1ccc(-n2cc(C#N)cn2)nc1 [Compound 20.1, 1-[5-({7-Amino-5-methyl-[1,2,5]oxadiazolo[3,4-b]pyridin-6-yl}methyl)pyridin-2-yl]-1H-pyrazole-4-carbonitrile Trifluoro-Acetic Acid Salt] |
| 3.24 | Cc1nc2nonc2c(N)c1Cc1ccc(-n2cccn2)nc1 [Compound 20.2, 5-Methyl-6-{[6-(1H-pyrazol-1-yl)pyridin-3-yl]methyl}-[1,2,5]oxadiazolo[3,4-b]pyridin-7-amine Trifluoro-Acetic Acid Salt] |
| 0.099 | Cc1nc2nonc2c(N)c1Cc1ccc(C#N)c(OCC(F)(F)F)c1 [Compound 21.1, 4-({7-Amino-5-methyl-[1,2,5]oxadiazolo[3,4-b]pyridin-6-yl}methyl)-2-(2,2,2-trifluoroethoxy)benzonitrile] |
| 0.176 | Cc1nc2nonc2c(N)c1Cc1ccc(C#N)c(OCC(F)F)c1 [Compound 21.2, 4-({7-Amino-5-methyl-[1,2,5]oxadiazolo[3,4-b]pyridin-6-yl}methyl)-2-(2,2-difluoroethoxy)benzonitrile] |
| 1.58 | Cc1nc2nonc2c(N)c1Cc1ccc(C#N)c(O[C@H]2CCNC2=O)c1 [Compound 21.3, 4-({7-Amino-5-methyl-[1,2,5]oxadiazolo[3,4-b]pyridin-6-yl}methyl)-2-{[(3S)-2-oxopyrrolidin-3-yl]oxy}benzonitrile] |
| 0.786 | Cc1nc2nonc2c(N)c1Cc1ccc(C#N)c(OCCC(F)(F)F)c1 [Compound 21.4, 4-({7-Amino-5-methyl-[1,2,5]oxadiazolo[3,4-b]pyridin-6-yl}methyl)-2-(3,3,3-trifluoropropoxy)benzonitrile] |
| 0.198 | Cc1nc2nonc2c(N)c1Cc1ccc(C#N)c(OCC2CC2(F)F)c1 (centres unmarked) [Compound 21.5, 4-({7-Amino-5-methyl-[1,2,5]oxadiazolo[3,4-b]pyridin-6-yl}methyl)-2-[(2,2-difluorocyclopropyl)methoxy]benzonitrile] |
| 0.15 | Cc1nc2nonc2c(N)c1Cc1ccc(C#N)c(OCC(C)(C)O)c1 [Compound 21.6, 4-({7-Amino-5-methyl-[1,2,5]oxadiazolo[3,4-b]pyridin-6-yl}methyl)-2-(2-hydroxy-2-methylpropoxy)benzonitrile] |
